This is an account of results in US6469013B2, “Therapeutic compounds” (Parker Hughes Institute, priority 1998, dated 2002).

Each structure is given as a SMILES string.

In one data set the test system is C57BL/6 splenocytes. In words: Splenocyte apoptosis (TUNEL, flow cytometry). Type of data set: cell-based, mouse. The following applies: 20 h. As for the experimental part: C57BL/6 splenocytes (3×10^6/ml) were cultured in 24-well plate for 20 h in 500 μl of RPMI-1640 under the conditions described above. […] Apoptotic cell death was detected by TUNEL, using InSitu Cell Detection Kit, Fluorescein (Boehringer Mannheim, Indianapolis, Ind.). After the culture period, cells were washed, fixed, permeabilised and stained following manufacturer's instructions and apoptosis was analyzed by flow cytometry, using FACS Calibur (Becton Dickinson, San Jose, Calif.).

Another data set relates to skh-1 mice. Put plainly: Chronic UVB-induced skin tumorigenesis. Format: in vivo, mouse. The procedure:
Female, 6-7 weeks old, hairless albino mice (skh-1) were purchased from Charles River Laboratories (Wilmington, Mass.) and were housed in a controlled environment (12-h light/12-h dark photo period, 22±1° C., 60±10% relative humidity), which is fully accredited by the USDA (United States Department of Agriculture). Animals were caged in groups of five in a pathogen free environment in accordance with the rules and regulations of U.S. Animal Welfare Act, and National Institutes of Health (NIH). All mice were housed in microisolator cages (Lab Products, Inc., N.J.) containing autoclaved bedding. The mice were allowed free access to autoclaved pellet food and tap water throughout the experiments. Animal care and the experimental procedures were carried out in agreement with institutional guidelines.
Ultraviolet lamps (8-FSX24T12/HO/UVB) that emit light predominantly in the UVB range (280-320 nm) were obtained from National Biological Corporation, Twinsburg, Ohio. The irradiance of the UVB lamps was determined before each irradiation, using a UVB meter (model—500C obtained from National Biological Corporation, Twinsburg, Ohio). For exposure to UV light, three mice were placed in an open 28 cm×10 cm plastic box that was divided in three compartments (one mouse per compartment). The plastic box was placed in the center, under the bank of UVB light, and the mice were irradiated with 35 mj/cm^2 dose of UVB. The exposure time for a 35 mj/cm ^2 dose of UVB varied from 30-34 s. The distance between UVB lamps and the surface receiving irradiation was 20 cm.
The mice were treated topically with a single application of Compound 6 (1.0 mg/cm^2, dissolved in DMSO) over a 2 cm^2 area on the dorsal surface before each UVB exposure. After 15 min. following Compound 6 application the mice were irradiated with UVB (35 mj/cm). UVB exposure of mice was performed three times a week for a total of 20 weeks. Control mice were treated with vehicle prior to UVB light exposure.
The skin thickness of mice, and papillary skin lesions greater than 1 mm in diameter were measured and recorded twice every week and the average of the two measurements was used in the calculations. Skin thickness, lesion number and lesion diameter measurements were limited only to the 2 cm^2 area on the dorsal surface of mice that was being treated either with compound 6 or vehicle. Lesion volume were calculated using the formula: […]
At the end of the study, 5-19 lesions from each group were randomly biopsied, and fixed in 10% buffered formalin. Formalin-fixed specimens were embedded in paraffin blocks, sectioned at 4 μm thickness, and stained in haematoxylin-eosin. The pathological evaluation of skin sections was performed by a Certified Veterinary Pathologist who was unaware of the identity of specimens.
The pathological classification of tumors was as follows: 1) Cutaneous papilloma: a tumor papillomatous growth of acanthotic epidermis without invasive growth of tumor cells into the dermis. […] 2) Actinic keratosis: a hyperplastic, orthokeratotic, mildly to moderately acanthotic epithelium. 3) Florid actinic keratosis: actinic keratosis with mild to moderately acanthotic ridges extending into the superficial dermis, resembling superficially invasive squamous cell carcinoma. 4) Keratoacanthoma: a papillary growth with a central keratin filled crater surrounded by hyperplastic, acanthotic stratified squamous epithelium. The leading edge of the tumor pushes into the underlying dermis. 5) Squamous cell carcinoma (SCC): a tumor with atypical cell nests invading into superficial and mid dermis.

For another data set, the system named is C57BL/6 male mice. In words: Low-dose streptozotocin (LDSTZ) diabetes model. Format: in vivo, mouse. Conditions: 100 mg/kg daily i.p. As for the experimental part:
C57BL/6 male mice or JAK3-deficient and WT mice (8-10-wk-old) were injected intraperitoneally with low-dose (40 mg/kg ) of STZ (Sigma, St Louis, Mo.) daily for 5 consecutive days, for induction of autoimmune experimental diabetes (LDSTZ). STZ was dissolved in citrate buffer pH 4.0 on ice, and injected within 10 min of preparation. Mice were monitored for diabetes development by testing blood glucose from the second week (day 7) after the STZ administrations by One Touch Profile diabetes tracking system (Lifescan, Milpitas, Calif.). Mice with glycemia over 220 mg/dl on three consecutive tests were considered diabetic, with the first detection of chronic glycemia taken as the date of diabetes onset. A group of C57BL/6 males was treated with WHI-P131-100 mg/kg/day, i.p., devided in two equal doses, from a beggining of the experiment till day 25.

Where [1] appears, read: group C, 1 mg/cm^2 topical, 20 weeks.
[2] abbreviates: group C, 1 mg/cm^2 topical, 20 weeks, mean ± SEM.

With `COc1cc2ncnc(Nc3ccc(O)cc3)c2cc1OC` [WHI-P131, 4-(4′-hydroxyl-phenyl)-amino-6,7-dimethoxyquinazoline], the “apoptotic cell death of splenocytes (TUNEL-positive)” value in the data set with C57BL/6 splenocytes (0.1 and 1 μg/ml) is “does not differ from control cells”. Moreover, the “apoptotic cell death of splenocytes (TUNEL-positive)” value in the data set with C57BL/6 splenocytes (10 and 100 μg/ml) is “significantly increased”. The “inhibition of occurrence of SCC/Florid actinic keratosis” value in the data set on skh-1 mice (group C vs group B, 20 weeks) was “about 23%”. In addition, the No. of lesions/mouse with skh-1 mice (group C, 1 mg/cm^2 topical before each UVB 35 mj/cm^2, 20 weeks, mean ± SEM) is listed as 1.6 ± 0.4. In addition, in the data set with skh-1 mice (setting [1]), the “Percentage of mice with Actinic keratosis” value came out at 53 Percentage, the “Percentage of mice with Keratoacanthomas” value is 0 Percentage, the “Percentage of mice with Papilloma” value is given as 7 Percentage and the “Percentage of mice with SCC/Florid actinic keratosis” value was found to be 57 Percentage. In addition, in the data set on skh-1 mice (setting [2]), the “Avg. Vol/lesion” value is 1.9 ± 0.5 and the Skin lesion volume/mouse is recorded as 3.2 ± 0.9. In the data set on skh-1 mice (weeks of UVB-irradiation, vehicle group around 10 weeks), the “onset of lesions (first lesion observed after)” value was found to be 14 weeks. The same molecule displayed a diabetic mice with C57BL/6 male mice (day 7 post first STZ injection) of 20%. In addition, in the data set with C57BL/6 male mice (day 9), the diabetic mice turned out to be 50%. In the data set on C57BL/6 male mice (day 11), this molecule yielded a diabetic mice of 65%.
